Experimental data published in US20110112100A1, “Hepatitis C Virus Inhibitors” (priority 2009, published 2011).
Structures can show the parent of a compound that is named as a salt. Where two headings read alike, the source gives them in different places.

What was measured:
1a-H77 replicon cells = assay: HCV 1a replicon inhibitory activity (Renilla luciferase); type: cell-based, hepatitis C virus; conditions: read-out: IC50 value (95% Confidence Intervals) pM Replicon 1A assay
How it was run: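 Replicon cells in DMEM + 10% FCS incubated 48 hours at 37° C., 5% CO2 with 1-in-3 serial dilutions of compound prepared in DMSO. Replication read as Renilla luciferase luminescence after lysis. EC50 taken from log concentration-response curves.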

1b (con1) replicon cells = assay: HCV 1b replicon inhibitory activity (luciferase, Britelite Plus); type: cell-based, hepatitis C virus; conditions: read-out: IC50 value (95% Confidence Intervals) pM Replicon 1B assay
How it was run: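 1b (con1) luciferase replicon cells in DMEM + 10% FCS were exposed to 1-in-3 DMSO compound dilutions for 48 h at 37° C, 5% CO2. Luminescence was read 1-15 min after Britelite Plus addition; EC50 came from log concentration-response curves.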

[1] = geometric mean, 95% confidence intervals in parentheses, 48 hours, medium with 10% FCS

Molecule | IC50 (1a-H77 replicon cells; Hepatitis C virus, 48 h) | IC50 (1b (con1) replicon cells; Hepatitis C virus, 48 h) | IC50 (1a-H77 replicon cells; [1]) | IC50 (1b (con1) replicon cells; [1])
COC(=O)N[C@H](C(=O)N1CCC[C@H]1c1nc(-c2ccc(-c3cnc4cc(-c5cnc([C@@H]6CCCN6C(=O)[C@@H](Cc6ccccc6)NC(=O)OC)[nH]5)ccc4n3)cc2)c[nH]1)C(C)C [Example 62, Methyl {(2R)-1-[(2S)-2-{5-[2-(4-{2-[(2S)-1-{(2S)-2-[(methoxycarbonyl)amino]-3-methylbutanoyl}pyrrolidin-2-yl]-1H-imidazol-4-yl}phenyl)quinoxalin-6-yl]-1H-imidazol-2-yl}pyrrolidin-1-yl]-1-oxo-3-phenylpropan-2-yl}carbamate trifluoroacetic acid salt] | 2570 pM | 44.1 pM | – | –
COC(=O)N[C@H](C(=O)N1CCC[C@H]1c1nc(-c2ccc(-c3cnc4cc(-c5cnc([C@@H]6CCCN6C(=O)[C@@H](COCc6ccccc6)NC(=O)OC)[nH]5)ccc4n3)cc2)c[nH]1)C(C)C [Example 63, Methyl {(2S)-1-[(2S)-2-{4-[4-(6-{2-[(2S)-1-{(2R)-3-(benzyloxy)-2-[(methoxycarbonyl)amino]propanoyl}pyrrolidin-2-yl]-1H-imidazol-5-yl}quinoxalin-2-yl)phenyl]-1H-imidazol-2-yl}pyrrolidin-1-yl]-3-methyl-1-oxobutan-2-yl}carbamate trifluoroacetic acid salt] | 4770 pM | 400 pM | – | –
COC(=O)N[C@@H](CO)C(=O)N1CCC[C@H]1c1ncc(-c2ccc3nc(-c4ccc(-c5c[nH]c([C@@H]6CCCN6C(=O)[C@@H](NC(=O)OC)C(C)C)n5)cc4)cnc3c2)[nH]1 [Example 64, Methyl {(2S)-1-[(2S)-2-{4-[4-(6-{2-[(2S)-1-{(2S)-3-hydroxy-2-[(methoxycarbonyl)amino]propanoyl}pyrrolidin-2-yl]-1H-imidazol-5-yl}quinoxalin-2-yl)phenyl]-1H-imidazol-2-yl}pyrrolidin-1-yl]-3-methyl-1-oxobutan-2-yl}carbamate trifluoroacetic acid salt] | 44.9 pM | 42 pM | – | –
COC(=O)NCC(=O)N1CCC[C@H]1c1ncc(-c2ccc3nc(-c4ccc(-c5c[nH]c([C@@H]6CCCN6C(=O)[C@@H](NC(=O)OC)C(C)C)n5)cc4)cnc3c2)[nH]1 [Example 65, Methyl {2-[(2S)-2-[5-[2-(4-{2-[(2S)-1-{(2S)-2-[(methoxycarbonyl)amino]-3-methylbutanoyl}pyrrolidin-2-yl]-1H-imidazol-4-yl}phenyl)quinoxalin-6-yl]-1H-imidazol-2-yl}pyrrolidin-1-yl]-2-oxoethyl)carbamate trifluoroacetic acid salt] | 700 pM | 54.5 pM | – | –
COC(=O)NC(C(=O)N1CCC[C@H]1c1ncc(-c2ccc3nc(-c4ccc(-c5c[nH]c([C@@H]6CCCN6C(=O)[C@@H](NC(=O)OC)C(C)C)n5)cc4)cnc3c2)[nH]1)C1CCCC1 (stereo partly drawn) [Example 66, Methyl {(2S)-1-[(2S)-2-{4-[4-(6-{2-[(2S)-1-{cyclopentyl[(methoxycarbonyl)amino]acetyl}pyrrolidin-2-yl]-1H-imidazol-5-yl}quinoxalin-2-yl)phenyl]-1H-imidazol-2-yl}pyrrolidin-1-yl]-3-methyl-1-oxobutan-2-yl} carbamate trifluoroacetic acid salt] | – | – | 1720 pM | 21.7 pM
COC(=O)N[C@@H](CC(C)C)C(=O)N1CCC[C@H]1c1ncc(-c2ccc3nc(-c4ccc(-c5c[nH]c([C@@H]6CCCN6C(=O)[C@@H](NC(=O)OC)C(C)C)n5)cc4)cnc3c2)[nH]1 [Example 68, Methyl {(2S)-1-[(2S)-2-{5-[2-(4-{2-[(2S)-1-{(2S)-2-[(methoxycarobnyl)amino]-3-methylbutanoyl}pyrrolidin-2-yl]-1H-imidazol-4-yl}phenyl)quinoxalin-6-yl]-1H-imidazol-2-yl}pyrrolidin-1-yl]-4-methyl-1-oxopentan-2-yl}carbamate trifluoroacetic acid salt] | – | – | 23.2 pM | 8.15 pM
COC(=O)N[C@H](C(=O)N1CCC[C@H]1c1nc(-c2ccc(-c3cnc4cc(-c5cnc([C@@H]6CCCN6C(=O)[C@H](NC(=O)OC)[C@@H](C)OC(C)(C)C)[nH]5)ccc4n3)cc2)c[nH]1)C(C)C [Example 75, Methyl {(2S)-1-[(2S)-2-{4-[4-(6-{2-[(2S)-1-{(2R,3R)-3-tert-butoxy-2-[(methoxycarbonyl)amino]butanoyl}pyrrolidin-2-yl]-1H-imidazol-5-yl}quinoxalin-2-yl)phenyl]-1H-imidazol-2-yl}pyrrolidin-1-yl]-3-methyl-1-oxobutan-2-yl}carbamate trifluoroacetic acid salt] | 4190 pM | 143 pM | – | –
COC(=O)N[C@H](C(=O)N1CCC[C@H]1c1nc(-c2ccc(-c3cnc4cc(-c5cnc([C@@H]6CCCN6C(=O)[C@@H](COC(C)(C)C)NC(=O)OC)[nH]5)ccc4n3)cc2)c[nH]1)C(C)C [Example 76, Methyl {(2S)-1-[(2S)-2-{4-[4-(6-{2-[(2S)-1-{(2R)-3-tert-butoxy-2-[(methoxycarbonyl)amino]propanoyl}pyrrolidin-2-yl]-1H-imidazol-5-yl]quinoxalin-2-yl)phenyl]-1H-imidazol-2-yl}pyrrolidin-1-yl]-3-methyl-1-oxobutan-2-yl}carbamate trifluoroacetic acid salt] | 157 pM | 58.8 pM | – | –
CCC[C@@H](NC(=O)OC)C(=O)N1CCC[C@H]1c1ncc(-c2ccc3nc(-c4ccc(-c5c[nH]c([C@@H]6CCCN6C(=O)[C@@H](NC(=O)OC)C(C)C)n5)cc4)cnc3c2)[nH]1 [Example 77, Methyl {(2R)-1-[(2S)-2-{5-[2-(4-{2-[(2S)-1-{(2S)-2-[(methoxycarbonyl)amino]-3-methylbutanoyl}pyrrolidin-2-yl]-1H-imidazol-4-yl}phenyl)quinoxalin-6-yl]-1H-imidazol-2-yl}pyrrolidin-1-yl]-1-oxopentan-2-yl}carbamate trifluoroacetic acid salt] | 186 pM | 31.4 pM | – | –
CCCC[C@@H](NC(=O)OC)C(=O)N1CCC[C@H]1c1ncc(-c2ccc3nc(-c4ccc(-c5c[nH]c([C@@H]6CCCN6C(=O)[C@@H](NC(=O)OC)C(C)C)n5)cc4)cnc3c2)[nH]1 [Example 78, Methyl {(2R)-1-[(2S)-2-{5-[2-(4-{2-[(2S)-1-{(2S)-2-[(methoxycarbonyl)amino]-3-methylbutanoyl}pyrrolidin-2-yl]-1H-imidazol-4-yl}phenyl)quinoxalin-6-yl]-1H-imidazol-2-yl}pyrrolidin-1-yl]-1-oxohexan-2-yl}carbamate trifluoroacetic acid salt] | 443 pM | 45.5 pM | – | –
COC(=O)N[C@@H](CC1CCCCC1)C(=O)N1CCC[C@H]1c1ncc(-c2ccc3nc(-c4ccc(-c5c[nH]c([C@@H]6CCCN6C(=O)[C@@H](NC(=O)OC)C(C)C)n5)cc4)cnc3c2)[nH]1 [Example 80, Methyl {(2S)-1-[(2S)-2-(4-{4-[6-(2-{(2S)-1-[3-cyclohexyl-N-(methoxycarbonyl)alanyl]pyrrolidin-2-yl}-1H-imidazol-5-yl)quinoxalin-2-yl]phenyl}-1H-imidazol-2-yl)pyrrolidin-1-yl]-3-methyl-1-oxobutan-2-yl} carbamate] | – | – | 117 pM | 11.4 pM
COC(=O)N[C@H](C(=O)N1CCC[C@H]1c1nc(-c2ccc(-c3cnc4cc(-c5cnc([C@@H]6CCCN6C(=O)[C@@H](Cc6c[nH]c7ccccc67)NC(=O)OC)[nH]5)ccc4n3)cc2)c[nH]1)C(C)C [Example 82, Methyl {(2S)-1-[(2S)-2-{4-[4-(6-{2-[(2S)-1-{(2R)-3-(1H-indol-3-yl)-2-[(methoxycarbonyl)amino]propanoyl}pyrrolidin-2-yl]-1H-imidazol-5-yl}quinoxalin-2-yl)phenyl]-1H-imidazol-2-yl}pyrrolidin-1-yl]-3-methyl-1-oxobutan-2-yl}carbamate trifluoroacetic acid salt] | 490 pM | 190 pM | – | –
COC(=O)N[C@H](C(=O)N1CCC[C@H]1c1nc(-c2ccc(-c3cnc4cc(-c5cnc([C@@H]6CCCN6C(=O)[C@@H](Cc6ccccn6)NC(=O)OC)[nH]5)ccc4n3)cc2)c[nH]1)C(C)C [Example 83, Methyl {(2S)-1-[(2S)-2-(4-{4-[6-(2-{(2S)-1-[(2R)-2-[(methoxycarbonyl)amino]-3-(pyridin-2-yl)propanoyl]pyrrolidin-2-yl}-1H-imidazol-5-yl)quinoxalin-2-yl]phenyl}-1H-imidazol-2-yl)pyrrolidin-1-yl]-3-methyl-1-oxobutan-2-yl}carbamate trifluoroacetic acid salt] | 1030 pM | 53.4 pM | – | –
Methyl {(2S)-1-[(2S)-2-{4-[4-(6-{2-[(2S)- 1-{(2S)-3-tert-butoxy-2-[(methoxy carbonyl)amino]propanoyl}pyrrolidin-2- yl]-1H-imidazol-5-yl}quinoxalin-2-yl) phenyl]-1H-imidazol-2-yl}pyrrolidin-1-yl]- 3-methyl-1-oxobutan-2-yl}carbamate trifluoroacetic acid salt [Example 81] | – | – | 44 pM | 13.7 pM
